EC50 data for 18 compounds are collected here from patent US12227496B2 (BRISTOL-MYERS SQUIBB COMPANY, priority 2019, dated 2025).

The target of the assay is T1, human FXR (Homo sapiens, UniProt Q96RI1).
T1 construct: expressed in transfected cells; host or cells: HEK293 cells stably carrying a 5xGal4-response-element firefly luciferase reporter, transiently transfected with pcDNA3.1-Gal4-FXR
T1 sequence (Q96RI1 262-486 limits assumed): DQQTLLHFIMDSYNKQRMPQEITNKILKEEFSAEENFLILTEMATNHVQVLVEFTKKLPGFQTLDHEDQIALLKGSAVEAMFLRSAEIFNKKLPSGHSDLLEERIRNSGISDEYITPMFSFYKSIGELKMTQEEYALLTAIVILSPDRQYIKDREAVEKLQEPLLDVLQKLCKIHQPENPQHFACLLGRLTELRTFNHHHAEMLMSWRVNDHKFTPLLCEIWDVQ
Briefly: transient human FXR/Gal4-luciferase reporter assay. Format: cell-based. To be noted: Gal4-hFXR LBD fusion, luciferase reporter in HEK293 cells; response relative to 8 μM GW-4064. A digest of the protocol:
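HEK293 cells stably carrying a 5×Gal4-response-element firefly luciferase reporter were transiently transfected with Gal4-hFXR. They were then incubated overnight at 37 °C with compound serial dilutions in medium containing 10% charcoal/dextran-stripped FBS. Luminescence was read after Steady-Glo addition.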
In general terms: A reporter such as luciferase makes a cellular process visible.
What is called EC50 is the concentration at which the effect is half-maximal. Low values mean a more potent agent, high ones a less potent agent. In turn, `CN1CCC(C(=O)N(CC23CCC(c4nc(C5CC5)no4)(CC2)CC3)c2cccc(-c3nc(C4CC4)no3)c2)CC1` [Example 17, N-((4-(3-cyclopropyl-1,2,4-oxadiazol-5-yl)bicyclo[2.2.2]octan-1-yl)methyl)-N-(3-(3-cyclopropyl-1,2,4-oxadiazol-5-yl)phenyl)-1-methylpiperidine-4-carboxamide] came in with a 50% effective concentration (EC50) of 3.02 µM.

For the compound `O=C(C1CCOCC1)N(CC12CCC(c3nc(C4CC4)no3)(CC1)CC2)c1cccc(-c2nc(C(F)F)co2)c1` [Example 36, N-((4-(3-cyclopropyl-1,2,4-oxadiazol-5-yl)bicyclo[2.2.2]octan-1-yl)methyl)-N-(3-(4-(difluoromethyl)oxazol-2-yl)phenyl)tetrahydro-2H-pyran-4-carboxamide], a half-maximal effect (EC50) was put at 0.525 µM.

Compound `CCc1noc(-c2cccc(N(C(=O)C3CCCCC3)C(C)C34CCC(c5nc(C)no5)(CC3)CC4)c2)n1` (single isomer, unassigned) [Example 70, N-(3-(3-ethyl-1,2,4-oxadiazol-5-yl)phenyl)-N-(1-(4-(3-methyl-1,2,4-oxadiazol-5-yl)bicyclo[2.2.2]octan-1-yl)ethyl)cyclohexanecarboxamide] gave a concentration giving a half-maximal response (EC50) of 1.5 µM.

Regarding `CC(F)(F)c1nc(C23CCC(CN(C(=O)C4CCC(F)(F)CC4)c4cccc(-c5ccc(S(C)(=O)=O)cc5)c4)(CC2)CC3)no1` [Example 130, N-((4-(5-(1,1-difluoroethyl)-1,2,4-oxadiazol-3-yl)bicyclo[2.2.2]octan-1-yl)methyl)-4,4-difluoro-N-(4′-(methylsulfonyl)-[1,1′-biphenyl]-3-yl)cyclohexane-1-carboxamide], a half-maximal response (EC50) required 0.205 µM.

`O=C(N1CCOCC1)N(CC12CCC(c3nc(C4CC4)no3)(CC1)CC2)c1cccc(-c2nc(C3CC3)no2)c1` [Example 56, N-((4-(3-cyclopropyl-1,2,4-oxadiazol-5-yl)bicyclo[2.2.2]octan-1-yl)methyl)-N-(3-(3-cyclopropyl-1,2,4-oxadiazol-5-yl)phenyl)morpholine-4-carboxamide] returned an EC50 of 0.739 µM.

Turning to `CC(C)(C)c1nnc(C23CCC(CN(C(=O)C4CCC(F)(F)CC4)c4cccc(-c5cc(C6CC6)on5)c4)(CC2)CC3)o1` [Example 124, N-((4-(5-(tert-Butyl)-1,3,4-oxadiazol-2-yl)bicyclo[2.2.2]octan-1-yl)methyl)-N-(3-(5-cyclopropylisoxazol-3-yl)phenyl)-4,4-difluorocyclohexane-1-carboxamide], a half-maximal response (EC50) required 0.467 µM.

In turn, `COc1cc(-c2cccc(N(CC34CCC(C(=O)NC5CC5)(CC3)CC4)C(=O)C3CCCCC3)c2)ccn1` [Example 98, N-cyclopropyl-4-((N-(3-(2-methoxypyridin-4-yl)phenyl)cyclohexanecarboxamido)methyl)bicyclo[2.2.2]octane-1-carboxamide] had a concentration giving a half-maximal response (EC50) of 0.399 µM.

The compound `COc1ncc(-c2cccc(N(CC34CCC(c5nc(C6CC6)no5)(CC3)CC4)C(=O)C3CCCCC3)c2)o1` [Example 7, N-((4-(3-cyclopropyl-1,2,4-oxadiazol-5-yl)bicyclo[2.2.2]octan-1-yl)methyl)-N-(3-(2-methoxyoxazol-5-yl)phenyl)cyclohexanecarboxamide] returned an EC50 of 0.051 µM.

`Cn1nc(C2CC2)cc1C12CCC(CN(C(=O)C3CCS(=O)(=O)CC3)c3cccc(-c4cc(C5CC5)on4)c3)(CC1)CC2` [Example 131, N-((4-(3-cyclopropyl-1-methyl-1H-pyrazol-5-yl)bicyclo[2.2.2]octan-1-yl)methyl)-N-(3-(5-cyclopropylisoxazol-3-yl)phenyl)tetrahydro-2H-thiopyran-4-carboxamide 1,1-dioxide] registered an EC50 of 1.93 µM.

In the case of `O=C(C1CCS(=O)(=O)CC1)N(CC12CCC(c3nc(C4CC4)no3)(CC1)CC2)c1cccc(-c2nc(C3CC3)no2)c1` [Example 18, N-((4-(3-cyclopropyl-1,2,4-oxadiazol-5-yl)bicyclo[2.2.2]octan-1-yl)methyl)-N-(3-(3-cyclopropyl-1,2,4-oxadiazol-5-yl)phenyl)tetrahydro-2H-thiopyran-4-carboxamide 1,1-dioxide], the EC50 is 1.17 µM.

In turn, `CCOc1ncc(-c2cccc(N(CC34CCC(c5nc(C6CC6)no5)(CC3)CC4)C(=O)C3CCCCC3)c2)o1` [Example 8, N-((4-(3-cyclopropyl-1,2,4-oxadiazol-5-yl)bicyclo[2.2.2]octan-1-yl)methyl)-N-(3-(2-ethoxyoxazol-5-yl)phenyl)cyclohexanecarboxamide] had an EC50 of 0.019 µM.

The compound `COCc1nc(-c2cccc(N(CC34CCC(c5nc(C6CC6)no5)(CC3)CC4)C(=O)C3CCCCC3)c2)cs1` [Example 49, N-((4-(3-cyclopropyl-1,2,4-oxadiazol-5-yl)bicyclo[2.2.2]octan-1-yl)methyl)-N-(3-(2-(methoxymethyl)thiazol-4-yl)phenyl)cyclohexanecarboxamide] returned a concentration giving a half-maximal response (EC50) of 0.105 µM.

On to `CC(C)(O)c1nc(-c2cccc(N(CC34CCC(c5nc(C6CC6)no5)(CC3)CC4)C(=O)C3CCCCC3)c2)cs1` [Example 32, N-((4-(3-cyclopropyl-1,2,4-oxadiazol-5-yl)bicyclo[2.2.2]octan-1-yl)methyl)-N-(3-(2-(2-hydroxypropan-2-yl)thiazol-4-yl)phenyl)cyclohexanecarboxamide], for which it took 0.32 µM to reach a half-maximal effect (EC50).

With `CC(C)(C)c1noc(C23CCC(CN(C(=O)C4CCOCC4)c4cc(F)cc(-c5nc(C6CC6)no5)c4)(CC2)CC3)n1` [Example 115, N-((4-(3-(tert-butyl)-1,2,4-oxadiazol-5-yl)bicyclo[2.2.2]octan-1-yl)methyl)-N-(3-(3-cyclopropyl-1,2,4-oxadiazol-5-yl)-5-fluorophenyl)tetrahydro-2H-pyran-4-carboxamide], the 50% effective concentration (EC50) came to 0.083 µM.

As to `CC1(C)CCCN(C(=O)N(CC23CCC(c4nc(C5CC5)no4)(CC2)CC3)c2cccc(-c3nc(C4CC4)no3)c2)C1` (racemic) [Example 62, N-((4-(3-cyclopropyl-1,2,4-oxadiazol-5-yl)bicyclo[2.2.2]octan-1-yl)methyl)-N-(3-(3-cyclopropyl-1,2,4-oxadiazol-5-yl)phenyl)-3,3-dimethylpiperidine-1-carboxamide], the EC50 was 3.81 µM.

With `CCOc1ccc(-c2cc(N(CC34CCC(c5nc(C(C)(C)C)no5)(CC3)CC4)C(=O)C3CCC(C)(O)CC3)ccc2F)cc1` (stereo not drawn) [Example 166, N-((4-(3-(tert-butyl)-1,2,4-oxadiazol-5-yl)bicyclo[2.2.2]octan-1-yl)methyl)-N-(4′-ethoxy-6-fluoro-[1,1′-biphenyl]-3-yl)-4-hydroxy-4-methylcyclohexane-1-carboxamide], the half-maximal effective concentration (EC50) was 1.08 µM.

`Cc1nc2ccc(-c3cccc(N(CC45CCC(c6nc(C7CC7)no6)(CC4)CC5)C(=O)C4CCOCC4)c3)cc2s1` [Example 91, N-((4-(3-cyclopropyl-1,2,4-oxadiazol-5-yl)bicyclo[2.2.2]octan-1-yl)methyl)-N-(3-(2-methylbenzo[d]thiazol-6-yl)phenyl)tetrahydro-2H-pyran-4-carboxamide] came in with a concentration giving a half-maximal response (EC50) of 0.097 µM.

In turn, `CC(C)(O)c1coc(-c2cccc(N(CC34CCC(c5nc(C6CC6)no5)(CC3)CC4)C(=O)C3CCCCC3)c2)n1` [Example 21, N-((4-(3-cyclopropyl-1,2,4-oxadiazol-5-yl)bicyclo[2.2.2]octan-1-yl)methyl)-N-(3-(4-(2-hydroxypropan-2-yl)oxazol-2-yl)phenyl)cyclohexanecarboxamide] registered an EC50 of 0.194 µM.
